Measured values from patent publication US20090104633A1, “Kit for Highly Sensitive Detection Assays” (priority 2005, published 2009).

Assays:
[1] = Hydrolysis half-lifes of active ester derivatives by 1H-NMR; type: physicochemical; details: 50 mM deuterated phosphate buffer, pD 7.2, room temperature, 1 mM active ester
Experimental: The hydrolysis half-lifes of active ester derivatives in physiological buffer were determined by ^1H-NMR spectroscopy. For this purpose a 50 mM phosphate buffer in deuterium oxide (D2O, […]) (deutero, Kastellaun, FRG), pD 7.2, was prepared. The phosphate salts were lyophilized thrice from fresh deuterium oxide. Finally, fresh D2O was added and the pD value was verified. […] To initiate the hydrolysis reaction 10 μl of these solutions were added to 490 μl of 50 mM deuterated phosphate-buffer, pD 7.2, spiked with 3-(trimethylsilyl)-1-propanesulfonic acid-D6 sodium salt (TMSPS) (Merck, Darmstadt, FRG) (0.1 mg/ml) as internal reference, resulting in a final concentration of active ester derivatives of 1 mM. The hydrolysis of the active esters was monitored at room temperature by ^1H-NMR spectroscopy with an Avance DRX-600 system (Bruker BioSpin, Rheinstetten, FRG) at 600 MHz. The first ^1H-spectrum was recorded 6-12 min after addition of the phosphate buffer, additional spectra were recorded at about 20, 40, 60, 120, 240, 360 and 1000-1600 min (over night). After the last measurement the pD-value was verified again. The hydrolysis reaction of each active ester derivative was measured in 2-3 independent experiments.
The Bruker software X-WIN-NMR (V 2.5; Bruker BioSpin) was used to acquire and process the data recorded at different time points. For this purpose, signals which were altered in intensity or chemical shift due to deuterolysis and which were not superimposed by signals of other nuclei were integrated and put in relation to the internal standard TMSPS. The concentration of the non-hydrolyzed active ester derivatives was calculated from the change of peak integrals and was plotted versus time.

insulin = molecular target: T1, insulin (Bos taurus, UniProt P01317); test: Mean degree of derivatization of insulin with active esters (MALDI-TOF-MS); design: species or system bovine; details: 35 nMoles insulin reacted with 350 nMoles active ester, pH 7.2, 90 min RT; three independent experiments
T1 construct: 2 NH2-termini (chain A and B), 1 lysine side chain; purchased Sigma-Aldrich, Taufkirchen, FRG
Experimental: (§1) Stock solutions of active esters of the labelling compounds summarized in Table 2 (4.2-9.2 mg/ml, 14 mM) as well as labelling compounds (7a), (7b) and (7c) (approximately 15 mM) were prepared freshly in anhydrous dimethylsulfoxide (DMSO) for each labelling experiment. Likewise, a stock solution of insulin (200 μg/ml, 35 μM; bovine insulin, MW 5733,49; Sigma-Aldrich, Taufkirchen, FRG) in 50 mM phosphate buffer, pH 7.2, 0.02 mM ethylenediaminetetraacetic acid (EDTA) (PBS/EDTA) was prepared. For labelling, insulin (35 nMoles, representing 105 nMoles amino functions (2 NH2-termini (chain A and B), 1 lysine side chain)) was reacted with active esters (350 nMoles) in a final volume of 1.25 ml PBS/EDTA, containing no more than 2% (v/v) DMSO in any experiment. The solutions were mixed on an end-to-end mixer for 90 min at RT and the labelling reactions were terminated by addition of glycine (1 mMole) in PBS/EDTA. Mixing was continued for 60 min at RT before the solution was dialyzed against PBS/EDTA (MWCO 2,000). After another dialysis against water, the heterogeneity of the samples and the molecular masses of the products were determined in MALDI-TOF-MS analyses (Bruker-Reflex II instrument; Bruker-Daltonik, Bremen, FRG). The mean labelling degree was calculated as described elsewhere (Olivier V, Meisen I, Meckelein B, Hirst T R, Peter-Katalinic J, Schmidt M A, Frey A (2003). Influence of targeting ligand flexibility on receptor binding of particulate drug delivery systems. Bioconjug Chem. 14:1203-8.) (Table 6).

streptavidin-HRP = molecular target: T2, streptavidin-HRP (Streptomyces avidinii, UniProt P22629); test: Detection of active ester-labelled insulin on PVDF filterplates (HRP/TMB); type: binding; details: for Detection limit of labelled protein: insulin conjugate on PVDF, mean ± SEM; for Detection limit of label: insulin conjugate, converted from pg protein with labelling degree (Table 6)
T2 construct: purchased Vector Labs, Burlingame, Calif., USA
Experimental: as §1
The concentrations of the labelled polypeptides were determined by standard assays and serial dilutions of the solutions were prepared in PBS/EDTA. Equal amounts of the diluted solutions (1,000-0.12 ng conjugate/well, each in 50 μl PBS/EDTA) were applied onto 96-well polystyrene filterplates equipped with polyvinylidene fluoride (PVDF) membrane bottoms (Corning, Corning, N.Y., USA), which had been pre-activated with 70% (v/v) ethanol and washed with phosphate buffer. The plates were incubated for 30 min at room temperature before the solutions were sucked through the membranes with a MultiScreen vacuum manifold (Millipore, Schwalbach, FRG). […] Nonspecific binding sites were blocked with 200 μl/well 2% (w/v) caseinate in D-PBS (Caseinate-PBS) for 30 min at RT and the solutions were removed. […] After the plates were washed another 6× with PBST with the vacuum manifold and 6× with D-PBS with the plate washer, color was developed at room temperature in the dark with 75 μl/well of a highly sensitive tetramethylbenzidine-based substrate reagent (1 mM 3,3′,5,5′-tetramethylbenzidine, 3 mM H2O2 in 200 mM potassium citrate, pH 4.0; (Frey A, Meckelein B, Externest D, Schmidt M A (2000). A stable and highly sensitive 3,3′,5,5′-tetramethylbenzidine-based substrate reagent for enzyme-linked immunosorbent assays. J Immunol Methods. 233:47-56.)). The reaction was terminated after 30 min with 125 μl/well 1 M sulfuric acid.

[2] = molecular target: T3, Streptavidin AlexaFluor680 (Streptomyces avidinii, UniProt P22629); test: Dot blot detection of active ester-labelled ovalbumin on nitrocellulose; type: binding; design: purchased Invitrogen; details: ovalbumin conjugate, mean ± SEM
Experimental: Stock solutions of 65-100 mg/ml (120-330 mM) active ester of the labelling compounds (Table 2) were prepared freshly in anhydrous dimethylsulfoxide (DMSO) for each labelling experiment. […] For labelling 100 nMoles ovalbumin (representing 2 μMoles amino functions) were reacted with 1.5 μMoles of active ester in a final volume of 300 μl 100 mM sodium tetraborate, pH 8.2, containing no more than 5% (v/v) DMSO in any experiment. The solutions were mixed on an end-to-end mixer for 180 min at RT and the labelling reactions were terminated by addition of 1.5 mmoles glycine in sodium tetraborate buffer. Mixing was continued overnight at 4° C. before the solutions were dialyzed against sodium tetraborate buffer. The concentrations of the labelled protein were determined by standard assays and serial dilutions of the stock solutions were prepared.

[3] = molecular target: T3, Streptavidin AlexaFluor680; test: Dot blot detection of hydrazide-labelled glycoprotein (porcine mucin) on nitrocellulose; details: periodate-oxidized mucin, mean ± SEM
Experimental: All subsequent treatments of the membranes were carried out in tight fitting trays. For oxidation or the carbohydrate moieties of the glycoprotein the membranes were incubated for 20 min at RT in 3 ml (0.21 ml/cm^2 membrane) 10 mM sodium m-periodate (Sigma-Aldrich, Taufkirchen, FRG) in 100 mM sodium acetate buffer (pH 5). They were washed another 3× in D-PBS, incubated each for 60 min at RT with 3 ml (0.21 ml/cm^2 membrane) of 2.5 μM labelling-hydrazide (Table 4) in 100 mM sodium acetate buffer (pH 5), washed again 3× in D-PBS and blocked with 1% (w/v) Casein (Hammarsten grade, BDH, Poole, UK) in D-PBS (Casein-PBS) for 30 min at RT. Blocked membranes were incubated for 90 min at RT with 4 ml (0.28 ml/cm^2 membrane) diluted monoclonal antibodies against 2,4-dichlorophenoxyacetic acid or monoclonal antibodies against DIG or with AlexaFluor680-labelled streptavidin (for working concentrations see Table 3) in Casein-PBS and washed 3× with D-PBS. […] After intense washing with D-PBS fluorescence was read out on a fluorescence imager (Odyssey Infrared Imager, LI-COR Biosciences, Lincoln, Nebr., USA) and quantitated with an appropriate image analysis software (Odyssey Software v.1.2). Statistical analysis of the data was carried out with the GraphPad Prism Suite (v.4.0.0, GraphPad Software, San Diego, Calif., USA).

T2 sequence (P22629 25-183): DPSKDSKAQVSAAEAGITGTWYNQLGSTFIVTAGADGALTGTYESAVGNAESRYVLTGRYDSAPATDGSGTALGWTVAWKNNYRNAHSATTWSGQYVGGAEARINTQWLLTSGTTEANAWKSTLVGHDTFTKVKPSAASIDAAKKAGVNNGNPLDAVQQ
T3 sequence (P22629 25-183): as above
T1 sequence (P01317 25-54 limits assumed): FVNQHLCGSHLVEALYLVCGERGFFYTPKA
T1 sequence (P01317 85-105 limits assumed): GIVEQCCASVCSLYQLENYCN

Molecule	Hydrolysis half-life [1]	Mean labelling degree (insulin)	Detection limit of labelled protein (streptavidin-HRP)	Detection limit of label (streptavidin-HRP)	Detection limit of proteins after labelling with active ester derivatives [2] [pg]	Detection limit of proteins after labelling with hydrazide derivatives [3]
O=C(COc1ccc(Cl)cc1Cl)ON1C(=O)CCC1=O [(1b)]	25 min	0.52 Mole label: Mole insulin				
O=C(COc1ccc(Cl)cc1Cl)NCCCCCCCCCCC(=O)ON1C(=O)CC(S(=O)(=O)[O-])C1=O.[Na+] (centres unmarked) [(3d), 11-(2-(2,4-dichlorophenoxy)acetylamino)-undecanoic acid-N-hydroxysulfosuccinimidyl-ester-sodium Salt]		0.38 Mole label: Mole insulin				
O=C1N[C@H]2[C@H](CS[C@H]2CCCCC(=O)ON2C(=O)CC(S(=O)(=O)[O-])C2=O)N1.[Na+] (stereo partly drawn) [Sulfo-NHS-biotin, Sulfo-Succinimidyl-(+)-biotin]	62 min	1.79 Mole label: Mole insulin	62,500.0 ± 15,343.4 pg	19,512.6 ± 4,790.2 fMole	246.5 ± 67.2	
O=C(CCCC[C@@H]1SC[C@@H]2NC(=O)N[C@@H]21)NCCCCCC(=O)ON1C(=O)CC(S(=O)(=O)[O-])C1=O.[Na+] (stereo partly drawn) [Sulfo-NHS-LC-biotin, Sulfo-LC-(+)-Biotin]	101 min	1.72 Mole label: Mole insulin	33,854.2 ± 6,107.3 pg	10,156.0 ± 1,832.1 fMole	248.0 ± 66.6	
NNC(=O)CCCCCNC(=O)CCCC[C@@H]1SC[C@@H]2NC(=O)N[C@@H]21 [Biotin-C6 hydrazide, LC-(+)-Biotinoylhydrazide]						49.1 ± 6.3^ pg
C[C@]12CC[C@H](OCC(=O)NCCCCCC(=O)ON3C(=O)CCC3=O)C[C@H]1CC[C@@H]1[C@@H]2C[C@@H](O)[C@]2(C)[C@@H](C3=CC(=O)OC3)CC[C@]12O [DIG-C6-NHS, Digoxigenin-3-O-methylcarbonyl-ε-aminocaproyl-N-hydroxysuccinimide]	248^(*^) min	1.50 Mole label: Mole insulin				
O=C(CCCCCNC(=O)CCCC[C@@H]1SC[C@@H]2NC(=O)N[C@@H]21)NCCCCCC(=O)ON1C(=O)CCC1=O [NHS-SLC-biotin, SLC-NHS-(+)-Biotin]		0.08 Mole label: Mole insulin	1,277,778.0 ± 237,333.4 pg	17,829.0 ± 3,311.5 fMole	39063.0 ± 5508.0	
SLC-(+)-Biotinoylhydrazide [Biotin-C11 hydrazide]						114.6 ± 10.4^ pg
O=C(COc1ccc(Cl)cc1Cl)NCCCCCC(=O)ON1C(=O)CC(S(=O)(=O)[O-])C1=O.[Na+] (centres unmarked) [(3b), 6-(2-(2,4-dichlorophenoxy)acetylamino)-hexanoic acid-N-hydroxysulfosuccinimidyl-ester-sodium Salt]	231^(*^) min	1.61 Mole label: Mole insulin				
